In brackets after ≈: the same amount, converted by molar mass.
Columns and labels:
[1] = Kinetic solubility of the compound; type: physicochemical; details: read-out: Kinetic_solubility
[2] = Clearance in human liver microsomes at 1 uM incubated up to 60 mins by LC-MS/MS method; type: ADME, microsome
physchem = details: buffer, pH 7.4
[3] = target: T1, Tyrosine-protein kinase BTK (Homo sapiens, UniProt Q06187); assay: Inhibition of human recombinant C-terminal polyhistidine tagged BTK (1 to 659 residues)-mediated synthetic peptide substrate phosphorylation expressed in baculovirus-infected insect cells
T1 sequence (Q06187 whole entry, the tested form may be a part): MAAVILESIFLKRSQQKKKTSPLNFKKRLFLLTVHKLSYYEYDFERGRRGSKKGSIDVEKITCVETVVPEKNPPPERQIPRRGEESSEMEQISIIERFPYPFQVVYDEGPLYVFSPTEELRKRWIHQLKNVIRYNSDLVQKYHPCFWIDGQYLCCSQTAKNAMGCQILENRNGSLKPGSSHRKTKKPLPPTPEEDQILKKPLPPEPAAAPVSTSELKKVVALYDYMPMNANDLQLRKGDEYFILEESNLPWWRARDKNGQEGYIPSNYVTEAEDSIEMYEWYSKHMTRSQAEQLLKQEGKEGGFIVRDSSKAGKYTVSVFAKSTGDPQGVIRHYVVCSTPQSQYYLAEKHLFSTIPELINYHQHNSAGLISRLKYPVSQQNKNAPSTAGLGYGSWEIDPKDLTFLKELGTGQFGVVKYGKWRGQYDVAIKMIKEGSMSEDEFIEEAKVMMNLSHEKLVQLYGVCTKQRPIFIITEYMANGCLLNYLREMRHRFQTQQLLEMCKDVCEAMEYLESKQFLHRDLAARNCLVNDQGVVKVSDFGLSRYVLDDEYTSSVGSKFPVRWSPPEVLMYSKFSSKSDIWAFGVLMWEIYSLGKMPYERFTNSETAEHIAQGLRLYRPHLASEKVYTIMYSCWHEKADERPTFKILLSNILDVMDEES

[4] = Permeability across apical to basolateral in MDCK1 cells; type: ADME, cell-based, Canis lupus familiaris; details: dog, MDCK; read-out: permeability
[5] = Clearance in human hepatocytes at 1 uM incubated up to 60 mins by LC-MS/MS method; type: ADME, cell-based, Hepatocyte
[6] = target: T1, Tyrosine-protein kinase BTK
Description: Inhibition of BTK in human whole blood-derived CD19+ B cells assessed as suppression of anti-IgM stimulated-CD69 expression preincubated for 1 hr followed by IgM stimulation for 18 hrs by FACS analysis

in vitro = details: dog, MDCK
Description: Efflux ratio of permeability in MDCK1 cells

ERBB2 = ERBB2 (Homo sapiens, UniProt P04626); assay: Inhibition of recombinant human cytoplasmic His-tagged ERBB2 expressed in baculovirus at 1 uM by Z'-LYTE assay
ERBB2, sequence (P04626 whole entry): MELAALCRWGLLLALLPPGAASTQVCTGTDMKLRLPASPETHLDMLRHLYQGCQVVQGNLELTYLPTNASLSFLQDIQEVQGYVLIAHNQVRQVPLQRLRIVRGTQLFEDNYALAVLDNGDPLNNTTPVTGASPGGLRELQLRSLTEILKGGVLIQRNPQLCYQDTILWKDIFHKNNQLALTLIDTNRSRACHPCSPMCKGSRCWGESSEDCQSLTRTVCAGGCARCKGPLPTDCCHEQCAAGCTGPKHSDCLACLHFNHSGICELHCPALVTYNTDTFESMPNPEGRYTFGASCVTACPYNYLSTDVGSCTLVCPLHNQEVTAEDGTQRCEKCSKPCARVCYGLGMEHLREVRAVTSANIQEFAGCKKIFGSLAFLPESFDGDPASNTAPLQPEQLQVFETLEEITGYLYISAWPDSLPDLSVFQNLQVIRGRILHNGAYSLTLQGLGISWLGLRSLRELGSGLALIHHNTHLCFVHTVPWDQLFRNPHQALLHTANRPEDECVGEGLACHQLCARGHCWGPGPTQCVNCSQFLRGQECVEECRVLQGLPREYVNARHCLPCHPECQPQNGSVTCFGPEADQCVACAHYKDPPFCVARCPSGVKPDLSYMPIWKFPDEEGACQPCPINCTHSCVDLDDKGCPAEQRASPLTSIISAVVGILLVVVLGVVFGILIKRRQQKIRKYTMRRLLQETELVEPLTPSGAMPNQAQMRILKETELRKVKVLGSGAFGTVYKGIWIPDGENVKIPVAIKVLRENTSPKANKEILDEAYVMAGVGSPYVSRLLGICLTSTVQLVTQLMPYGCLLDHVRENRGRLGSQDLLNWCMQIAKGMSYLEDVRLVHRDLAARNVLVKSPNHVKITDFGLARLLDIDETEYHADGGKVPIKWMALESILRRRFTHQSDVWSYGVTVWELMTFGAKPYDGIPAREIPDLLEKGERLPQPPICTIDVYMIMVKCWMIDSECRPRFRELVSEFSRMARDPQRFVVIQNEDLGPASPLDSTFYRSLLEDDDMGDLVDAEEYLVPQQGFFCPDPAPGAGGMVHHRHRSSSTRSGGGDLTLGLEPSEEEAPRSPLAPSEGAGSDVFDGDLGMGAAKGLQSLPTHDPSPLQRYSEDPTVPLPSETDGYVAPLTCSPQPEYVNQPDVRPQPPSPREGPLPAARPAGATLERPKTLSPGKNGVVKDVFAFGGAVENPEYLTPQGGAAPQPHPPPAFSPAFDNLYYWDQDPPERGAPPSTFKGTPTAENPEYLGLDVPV

BMX = BMX (Homo sapiens, UniProt P51813); assay: Inhibition of cytoplasmic recombinant human full length His-tagged BMX expressed in baculovirus at 1 uM by Z'-LYTE assay
TXK = target: T2, TXK (Homo sapiens, UniProt P42681); assay: Inhibition of human full length GST-tagged TXK expressed in baculovirus at 1 uM by Z'-LYTE assay
T2 sequence (P42681 whole entry): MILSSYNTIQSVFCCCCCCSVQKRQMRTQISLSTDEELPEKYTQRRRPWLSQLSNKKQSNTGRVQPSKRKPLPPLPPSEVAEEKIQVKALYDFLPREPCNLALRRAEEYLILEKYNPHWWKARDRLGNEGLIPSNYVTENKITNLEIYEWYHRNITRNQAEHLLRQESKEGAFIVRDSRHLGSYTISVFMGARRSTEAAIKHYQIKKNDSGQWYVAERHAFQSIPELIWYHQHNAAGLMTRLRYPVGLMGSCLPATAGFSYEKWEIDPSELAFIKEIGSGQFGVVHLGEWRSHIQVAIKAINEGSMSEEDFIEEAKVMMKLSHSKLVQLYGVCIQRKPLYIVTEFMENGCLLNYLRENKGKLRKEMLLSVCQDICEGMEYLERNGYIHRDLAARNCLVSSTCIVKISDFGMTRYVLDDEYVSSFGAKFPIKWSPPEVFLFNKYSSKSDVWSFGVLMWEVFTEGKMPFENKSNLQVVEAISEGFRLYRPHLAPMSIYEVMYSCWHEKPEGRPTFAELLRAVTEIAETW

BLK = BLK (Homo sapiens, UniProt P51451); assay: Inhibition of recombinant human full length His-tagged BLK expressed in baculovirus at 1 uM by Z'-LYTE assay
BLK, sequence (P51451 whole entry): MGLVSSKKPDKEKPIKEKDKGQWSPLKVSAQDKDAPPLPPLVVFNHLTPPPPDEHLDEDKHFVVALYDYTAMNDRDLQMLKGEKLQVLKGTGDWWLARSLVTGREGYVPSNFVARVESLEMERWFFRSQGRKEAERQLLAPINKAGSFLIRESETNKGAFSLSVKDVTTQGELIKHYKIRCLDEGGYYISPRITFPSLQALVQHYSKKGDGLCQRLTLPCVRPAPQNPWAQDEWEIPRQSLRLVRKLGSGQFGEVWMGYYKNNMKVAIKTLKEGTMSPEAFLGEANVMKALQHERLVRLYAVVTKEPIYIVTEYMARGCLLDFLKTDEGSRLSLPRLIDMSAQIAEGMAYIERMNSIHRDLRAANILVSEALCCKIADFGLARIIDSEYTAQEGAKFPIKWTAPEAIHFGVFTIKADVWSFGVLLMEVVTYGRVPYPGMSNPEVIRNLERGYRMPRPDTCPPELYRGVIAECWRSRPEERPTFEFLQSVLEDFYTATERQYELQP

JAK3 = target: T3, JAK3 (Homo sapiens, UniProt P52333); assay: Inhibition of recombinant human catalytic GST-tagged JAK3 expressed in baculovirus at 1 uM by Z'-LYTE assay
T3 sequence (P52333 whole entry): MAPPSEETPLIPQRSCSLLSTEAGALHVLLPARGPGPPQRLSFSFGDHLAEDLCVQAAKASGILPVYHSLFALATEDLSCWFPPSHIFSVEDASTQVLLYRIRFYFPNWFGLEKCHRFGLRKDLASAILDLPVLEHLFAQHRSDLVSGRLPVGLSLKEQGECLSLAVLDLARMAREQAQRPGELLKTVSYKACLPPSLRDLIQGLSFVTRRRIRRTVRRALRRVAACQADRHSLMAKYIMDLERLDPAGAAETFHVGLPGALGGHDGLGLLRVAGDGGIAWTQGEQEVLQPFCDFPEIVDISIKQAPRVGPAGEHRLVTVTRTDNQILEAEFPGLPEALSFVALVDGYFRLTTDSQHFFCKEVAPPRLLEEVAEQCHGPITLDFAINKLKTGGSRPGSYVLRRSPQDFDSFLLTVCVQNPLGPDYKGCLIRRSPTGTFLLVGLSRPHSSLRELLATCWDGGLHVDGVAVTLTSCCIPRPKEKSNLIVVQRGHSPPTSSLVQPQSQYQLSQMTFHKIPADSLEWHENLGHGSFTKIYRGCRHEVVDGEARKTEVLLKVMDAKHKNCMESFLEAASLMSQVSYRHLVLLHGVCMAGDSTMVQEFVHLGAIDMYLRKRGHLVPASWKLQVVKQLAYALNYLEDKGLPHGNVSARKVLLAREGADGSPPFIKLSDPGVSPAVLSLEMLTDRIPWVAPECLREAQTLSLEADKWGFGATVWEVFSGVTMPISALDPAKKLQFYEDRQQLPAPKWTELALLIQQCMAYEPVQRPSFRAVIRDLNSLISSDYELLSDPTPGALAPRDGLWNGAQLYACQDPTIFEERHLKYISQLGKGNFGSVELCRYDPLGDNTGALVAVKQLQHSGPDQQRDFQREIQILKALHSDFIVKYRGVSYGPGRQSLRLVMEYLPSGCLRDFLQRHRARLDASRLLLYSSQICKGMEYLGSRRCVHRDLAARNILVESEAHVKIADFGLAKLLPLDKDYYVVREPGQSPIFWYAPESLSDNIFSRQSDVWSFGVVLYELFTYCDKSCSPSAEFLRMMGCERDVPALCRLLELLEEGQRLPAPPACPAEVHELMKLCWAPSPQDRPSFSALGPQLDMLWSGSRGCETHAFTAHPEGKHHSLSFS

EGFR = EGFR (Homo sapiens, UniProt P00533); assay: Inhibition of recombinant human cytoplasmic GST-tagged EGFR expressed in baculovirus at 1 uM by Z'-LYTE assay
EGFR, sequence (P00533 whole entry): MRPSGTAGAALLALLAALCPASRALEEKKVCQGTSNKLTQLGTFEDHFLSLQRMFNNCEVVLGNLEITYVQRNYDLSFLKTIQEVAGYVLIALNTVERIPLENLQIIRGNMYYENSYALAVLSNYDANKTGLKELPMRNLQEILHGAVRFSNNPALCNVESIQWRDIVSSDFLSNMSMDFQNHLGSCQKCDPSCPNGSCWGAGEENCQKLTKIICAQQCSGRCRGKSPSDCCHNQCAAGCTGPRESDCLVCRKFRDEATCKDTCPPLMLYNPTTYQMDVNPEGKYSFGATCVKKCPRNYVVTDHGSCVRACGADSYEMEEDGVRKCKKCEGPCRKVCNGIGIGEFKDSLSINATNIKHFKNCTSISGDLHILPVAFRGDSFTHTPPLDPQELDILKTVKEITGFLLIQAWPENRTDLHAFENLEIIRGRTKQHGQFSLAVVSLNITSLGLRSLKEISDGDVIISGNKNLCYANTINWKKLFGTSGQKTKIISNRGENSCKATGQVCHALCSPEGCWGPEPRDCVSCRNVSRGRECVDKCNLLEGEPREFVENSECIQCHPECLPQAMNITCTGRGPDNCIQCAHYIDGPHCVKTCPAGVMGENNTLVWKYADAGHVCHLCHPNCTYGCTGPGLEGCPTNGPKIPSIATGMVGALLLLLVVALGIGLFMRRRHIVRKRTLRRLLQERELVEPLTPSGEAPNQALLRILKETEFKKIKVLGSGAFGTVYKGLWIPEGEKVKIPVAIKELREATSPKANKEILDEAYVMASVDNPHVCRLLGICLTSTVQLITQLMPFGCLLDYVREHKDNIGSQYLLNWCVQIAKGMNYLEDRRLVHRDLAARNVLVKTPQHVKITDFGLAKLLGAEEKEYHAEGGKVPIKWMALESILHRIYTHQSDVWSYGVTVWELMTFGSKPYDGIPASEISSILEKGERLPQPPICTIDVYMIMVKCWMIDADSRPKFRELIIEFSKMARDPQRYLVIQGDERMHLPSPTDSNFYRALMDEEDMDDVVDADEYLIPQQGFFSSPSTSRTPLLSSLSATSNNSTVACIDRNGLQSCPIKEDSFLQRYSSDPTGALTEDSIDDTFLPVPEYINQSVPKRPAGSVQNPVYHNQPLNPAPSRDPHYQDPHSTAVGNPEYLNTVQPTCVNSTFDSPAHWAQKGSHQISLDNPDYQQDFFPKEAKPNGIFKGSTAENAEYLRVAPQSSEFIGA

LTK = LTK (Homo sapiens, UniProt P29376); assay: Inhibition of recombinant human cytoplasmic GST-tagged LTK expressed in baculovirus at 1 uM by Z'-LYTE assay
ERBB4 = ERBB4 (Homo sapiens, UniProt Q15303); assay: Inhibition of recombinant human cytoplasmic GST-tagged ERBB4 expressed in baculovirus at 1 uM by Z'-LYTE assay
ERBB4, sequence (Q15303 whole entry): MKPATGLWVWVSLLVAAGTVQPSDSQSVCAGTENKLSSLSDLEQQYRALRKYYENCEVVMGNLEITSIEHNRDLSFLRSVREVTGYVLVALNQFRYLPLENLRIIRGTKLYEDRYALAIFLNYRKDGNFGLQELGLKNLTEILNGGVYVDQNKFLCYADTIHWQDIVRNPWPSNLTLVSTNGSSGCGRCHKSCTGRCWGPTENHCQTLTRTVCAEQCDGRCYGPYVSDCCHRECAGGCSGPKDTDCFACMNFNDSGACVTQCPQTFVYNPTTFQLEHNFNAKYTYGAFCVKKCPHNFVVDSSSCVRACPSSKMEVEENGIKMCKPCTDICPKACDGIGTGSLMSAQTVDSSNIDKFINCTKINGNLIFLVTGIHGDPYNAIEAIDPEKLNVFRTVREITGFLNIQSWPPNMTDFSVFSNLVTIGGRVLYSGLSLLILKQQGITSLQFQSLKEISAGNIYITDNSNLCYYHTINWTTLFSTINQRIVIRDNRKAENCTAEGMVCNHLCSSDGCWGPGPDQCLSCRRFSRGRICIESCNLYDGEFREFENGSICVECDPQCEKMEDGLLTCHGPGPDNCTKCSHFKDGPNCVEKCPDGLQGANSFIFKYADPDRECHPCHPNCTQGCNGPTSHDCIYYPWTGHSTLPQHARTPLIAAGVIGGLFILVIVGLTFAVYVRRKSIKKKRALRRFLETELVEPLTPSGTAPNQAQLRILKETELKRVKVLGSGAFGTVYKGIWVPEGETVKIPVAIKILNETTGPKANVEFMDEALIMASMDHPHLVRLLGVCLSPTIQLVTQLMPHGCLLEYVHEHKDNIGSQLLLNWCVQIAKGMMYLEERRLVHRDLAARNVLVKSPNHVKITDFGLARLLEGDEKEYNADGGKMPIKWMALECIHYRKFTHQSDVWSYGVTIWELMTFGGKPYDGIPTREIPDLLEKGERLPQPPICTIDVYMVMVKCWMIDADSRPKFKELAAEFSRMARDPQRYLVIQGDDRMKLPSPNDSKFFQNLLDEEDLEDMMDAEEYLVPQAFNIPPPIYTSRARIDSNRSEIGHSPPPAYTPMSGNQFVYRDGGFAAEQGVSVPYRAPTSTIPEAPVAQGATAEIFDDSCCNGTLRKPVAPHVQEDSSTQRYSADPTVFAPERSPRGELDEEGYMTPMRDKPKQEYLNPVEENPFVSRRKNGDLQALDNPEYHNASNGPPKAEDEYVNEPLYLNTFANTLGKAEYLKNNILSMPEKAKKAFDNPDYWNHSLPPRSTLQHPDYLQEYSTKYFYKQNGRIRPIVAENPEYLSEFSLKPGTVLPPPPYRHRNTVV

TEC = target: T4, TEC (Homo sapiens, UniProt P42680); assay: Inhibition of recombinant human cytoplasmic full length His-tagged TEC expressed in baculovirus at 1 uM by Z'-LYTE assay
T4 sequence (P42680 whole entry): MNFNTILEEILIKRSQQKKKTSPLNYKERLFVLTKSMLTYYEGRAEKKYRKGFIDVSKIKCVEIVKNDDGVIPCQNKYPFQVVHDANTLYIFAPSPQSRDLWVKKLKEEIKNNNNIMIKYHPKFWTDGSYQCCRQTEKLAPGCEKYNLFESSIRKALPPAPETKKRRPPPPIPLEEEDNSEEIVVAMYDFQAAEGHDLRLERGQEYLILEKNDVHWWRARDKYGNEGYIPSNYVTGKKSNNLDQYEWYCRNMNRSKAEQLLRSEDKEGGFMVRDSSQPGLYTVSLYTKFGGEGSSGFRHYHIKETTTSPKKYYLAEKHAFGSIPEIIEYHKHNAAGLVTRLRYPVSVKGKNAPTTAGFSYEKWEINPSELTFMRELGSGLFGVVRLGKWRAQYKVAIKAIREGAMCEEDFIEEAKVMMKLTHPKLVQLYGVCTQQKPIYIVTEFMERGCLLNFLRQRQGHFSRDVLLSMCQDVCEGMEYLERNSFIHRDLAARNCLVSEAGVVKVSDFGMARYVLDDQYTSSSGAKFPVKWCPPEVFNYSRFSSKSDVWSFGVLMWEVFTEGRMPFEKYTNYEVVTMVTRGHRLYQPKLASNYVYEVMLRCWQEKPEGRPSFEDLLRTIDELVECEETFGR

[7] = target: T1, Tyrosine-protein kinase BTK; remark: listed apart in the source
Description: Inhibition of BTK in human whole blood derived-basophils assessed as suppression of IgE mediated-FcepsilonR ligation-stimulated CD63 expression

SMILES	solubility kinetic [1] [µM]	CLhep predicted at 1 µM [2] [mL/min/kg]	logD (physchem)	Ki [3] [nM]	Papp A→B [4] [×10⁻⁶ cm/s]	CLhep predicted at 1 µM [5] [mL/min/kg]	IC50 [6] [nM]	efflux ratio (in vitro)	inhibition at 1 µM (ERBB2) [%]	inhibition at 1 µM (BMX) [%]	inhibition at 1 µM (TXK) [%]	inhibition at 1 µM (BLK) [%]	inhibition at 1 µM (JAK3) [%]	inhibition at 1 µM (EGFR) [%]	inhibition at 1 µM (LTK) [%]	inhibition at 1 µM (ERBB4) [%]	inhibition at 1 µM (TEC) [%]	IC50 [7] [nM]
Cn1cc(-c2cc(F)cc(N3CCn4c(cc5c4CCCC5)C3=O)c2CO)cc(Nc2ccc(N3CCN(C4COC4)CC3)cn2)c1=O	12 (≈ 7.85 µg/mL)	12.3	3.1															
C[C@@H]1CN(c2ccc(Nc3cc(-c4ccnc(N5CCn6c(cc7c6CC(C)(C)C7)C5=O)c4CO)cn(C)c3=O)nc2)[C@@H](C)CN1C1COC1		12	3.5	1.3	7.2	12	10.2	0.9										
C[C@H]1CN(C2COC2)CCN1c1ccc(Nc2cc(-c3ccnc(N4CCn5c(cc6c5CC(C)(C)C6)C4=O)c3CO)nn(C)c2=O)nc1		11	3.7		17.3	13	16.1	0.9										
C[C@H]1CN(C2COC2)CCN1c1cnc(Nc2cc(-c3ccnc(N4CCn5c(cc6c5CC(C)(C)C6)C4=O)c3CO)cn(C)c2=O)cn1		12		0.8	15.6	10	51.5	1.2										
C[C@@H]1CN(C2COC2)CCN1c1ccc(Nc2cc(-c3ccnc(N4CCn5c(cc6c5CC(C)(C)C6)C4=O)c3CO)cn(C)c2=O)nc1		15	2.8		7.8	14												
Cc1c(-c2c(F)cc(C(N)=O)c3[nH]c4c(c23)CC[C@@H](C(C)(C)O)C4)cccc1-n1c(=O)c2cccc(F)c2n(C)c1=O							88.3		1	80	81	82	-2	7	47	38	98	374
CC#CC(=O)N1CC[C@@H](n2c(=O)n(-c3ccc(Oc4ccccc4)cc3)c3c(N)ncnc32)C1 [TIRABRUTINIB]									7		66	47	-7	-2	-5	28	86	
C=CC(=O)Nc1cccc(Nc2nc(Nc3ccc(OCCOC)cc3)ncc2F)c1 [SPEBRUTINIB]									6	99	95	44	89	34	19	76	92	
CC[C@H]1CN(C2COC2)CCN1c1ccc(Nc2cc(-c3ccnc(N4CCn5c(cc6c5CC(C)(C)C6)C4=O)c3CO)cn(C)c2=O)nc1		12	3.6	0.96	9.5	16	15.9	0.9										
